One experiment deals with T1, human Nav1.7 (Homo sapiens, UniProt Q15858).
T1 construct: expressed in transfected cells; host or cells: HEK 293
Put plainly: IonWorks Quattro automated patch-clamp, inactivated state block of Nav1.7. It is filed as cell-based. The following applies: channels stably expressed in HEK 293 cells; double-pulse protocol, inactivated state block; read-out: potency for the Nav 1.7 sodium ion channel (IC50, as measured by IonWorks). The method, boiled down: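 HEK293 stable lines, IonWorks PPC patch clamp (nystatin/amphotericin access); double-pulse protocol giving ~50% inactivation: holding −100 mV (Nav1.7) or −110 mV (Nav1.5), 1000 ms prepulse to −10 or −30 mV, 10 ms repolarization, 10 ms test pulse. Peak current inhibition versus concentration fitted to Hill equation for IC50.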
Background: Patch clamp records ionic current or voltage across a cell membrane.

Another experiment addresses T2, human Nav1.5 (Homo sapiens, UniProt Q14524).
T2 construct: expressed in transfected cells; host or cells: HEK 293
The experiment is described as follows: IonWorks Quattro automated patch-clamp, Nav1.5 (selectivity against Nav1.7). It counts as cell-based. The following applies: IonWorks measurement, HEK 293 cells, inactivated state block. The procedure: Compounds were tested on human Nav1.7 and Nav1.5 channels stably expressed in HEK 293 cells. […] Cells were sealed on a planar substrate using the Population Patch […] (PPC) technology. Electrical access was obtained using both nystatin and amphotericin. A double-pulse protocol was used for the determination of IC50 values for inactivated state block. Nav1.7 and Nav1.5 expressing cells were voltage clamped at −100 mV and −110 mV, respectively. A depolarizing prepulse to −10 mV (Nav1.7) or −30 mV (Nav1.5) for 1000 ms followed by a 10 ms repolarization to −100 mV (Nav1.7) or −110 mV (Nav1.5) was given to generate fractional channel inactivation of 50%, followed by a 10 ms test pulse to −10 mV (Nav1.7) or −30 mV (Nav1.5) to measure peak current in control conditions and after compound addition. The following recording solutions were used (mM). External: 150 NaCl, 2 CaCl2, 5 KCl, 1 Mg Cl2, 10 HEPES, 12 Dextrose; internal: 120 CsF, 30 CsCl, 10 EGTA, 5 HEPES, 5 NaF, 2 MgCl2.
For all electrophysiology experiments, offline analysis was used to determine percent inhibition as a function of drug concentration. IC50 values were determined by fitting to the Hill equation.

T2 sequence (Q14524 whole entry): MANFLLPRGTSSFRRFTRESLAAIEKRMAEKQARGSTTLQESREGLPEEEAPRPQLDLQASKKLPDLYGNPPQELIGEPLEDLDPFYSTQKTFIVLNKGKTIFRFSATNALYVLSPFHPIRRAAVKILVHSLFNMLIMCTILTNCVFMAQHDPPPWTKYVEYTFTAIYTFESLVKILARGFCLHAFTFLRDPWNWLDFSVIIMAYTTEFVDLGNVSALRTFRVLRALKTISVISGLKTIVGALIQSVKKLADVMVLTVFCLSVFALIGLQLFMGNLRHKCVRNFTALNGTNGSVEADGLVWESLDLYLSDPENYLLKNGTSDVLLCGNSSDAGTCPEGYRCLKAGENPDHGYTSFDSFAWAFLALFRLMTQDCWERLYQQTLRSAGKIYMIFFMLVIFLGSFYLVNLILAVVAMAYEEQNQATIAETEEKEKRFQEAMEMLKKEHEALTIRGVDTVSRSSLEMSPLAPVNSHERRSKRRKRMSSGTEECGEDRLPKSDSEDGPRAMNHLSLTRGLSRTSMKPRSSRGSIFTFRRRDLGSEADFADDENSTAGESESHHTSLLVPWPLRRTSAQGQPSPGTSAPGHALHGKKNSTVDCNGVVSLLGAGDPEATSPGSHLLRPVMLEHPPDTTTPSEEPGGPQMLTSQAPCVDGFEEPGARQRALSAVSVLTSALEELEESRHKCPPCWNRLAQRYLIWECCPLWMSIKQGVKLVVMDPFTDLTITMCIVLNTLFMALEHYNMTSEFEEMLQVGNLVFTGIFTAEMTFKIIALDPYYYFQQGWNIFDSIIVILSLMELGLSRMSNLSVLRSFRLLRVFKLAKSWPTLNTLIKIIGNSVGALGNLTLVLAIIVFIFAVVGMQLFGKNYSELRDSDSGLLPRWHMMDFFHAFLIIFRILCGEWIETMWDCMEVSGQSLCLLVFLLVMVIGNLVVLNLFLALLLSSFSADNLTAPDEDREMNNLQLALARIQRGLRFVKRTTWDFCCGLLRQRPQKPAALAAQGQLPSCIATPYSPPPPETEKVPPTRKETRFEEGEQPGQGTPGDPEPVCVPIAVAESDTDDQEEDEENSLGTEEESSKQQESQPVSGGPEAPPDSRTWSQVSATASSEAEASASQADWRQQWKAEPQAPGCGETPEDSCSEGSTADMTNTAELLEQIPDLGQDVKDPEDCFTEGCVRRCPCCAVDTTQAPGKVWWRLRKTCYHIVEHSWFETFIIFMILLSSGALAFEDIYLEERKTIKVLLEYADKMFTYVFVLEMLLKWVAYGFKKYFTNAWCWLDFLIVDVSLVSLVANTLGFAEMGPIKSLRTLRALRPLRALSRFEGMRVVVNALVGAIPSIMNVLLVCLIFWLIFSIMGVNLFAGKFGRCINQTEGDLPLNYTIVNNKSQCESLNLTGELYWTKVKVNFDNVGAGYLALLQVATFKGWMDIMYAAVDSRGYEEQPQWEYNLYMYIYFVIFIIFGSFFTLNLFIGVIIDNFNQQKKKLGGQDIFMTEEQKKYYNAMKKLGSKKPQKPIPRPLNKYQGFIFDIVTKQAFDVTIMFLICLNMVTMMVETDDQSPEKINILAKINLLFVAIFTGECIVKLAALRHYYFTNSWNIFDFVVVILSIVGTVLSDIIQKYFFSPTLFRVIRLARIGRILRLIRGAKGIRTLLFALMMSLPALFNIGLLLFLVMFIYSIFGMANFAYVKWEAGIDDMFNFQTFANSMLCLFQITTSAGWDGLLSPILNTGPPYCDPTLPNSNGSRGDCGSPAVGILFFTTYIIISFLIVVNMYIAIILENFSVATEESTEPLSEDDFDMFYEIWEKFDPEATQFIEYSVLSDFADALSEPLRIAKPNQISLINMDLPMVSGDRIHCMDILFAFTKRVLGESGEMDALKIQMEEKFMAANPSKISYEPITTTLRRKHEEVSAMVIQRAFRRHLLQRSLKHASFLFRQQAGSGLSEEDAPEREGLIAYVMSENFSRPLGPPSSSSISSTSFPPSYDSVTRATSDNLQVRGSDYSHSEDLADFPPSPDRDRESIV
T1 sequence (Q15858 whole entry): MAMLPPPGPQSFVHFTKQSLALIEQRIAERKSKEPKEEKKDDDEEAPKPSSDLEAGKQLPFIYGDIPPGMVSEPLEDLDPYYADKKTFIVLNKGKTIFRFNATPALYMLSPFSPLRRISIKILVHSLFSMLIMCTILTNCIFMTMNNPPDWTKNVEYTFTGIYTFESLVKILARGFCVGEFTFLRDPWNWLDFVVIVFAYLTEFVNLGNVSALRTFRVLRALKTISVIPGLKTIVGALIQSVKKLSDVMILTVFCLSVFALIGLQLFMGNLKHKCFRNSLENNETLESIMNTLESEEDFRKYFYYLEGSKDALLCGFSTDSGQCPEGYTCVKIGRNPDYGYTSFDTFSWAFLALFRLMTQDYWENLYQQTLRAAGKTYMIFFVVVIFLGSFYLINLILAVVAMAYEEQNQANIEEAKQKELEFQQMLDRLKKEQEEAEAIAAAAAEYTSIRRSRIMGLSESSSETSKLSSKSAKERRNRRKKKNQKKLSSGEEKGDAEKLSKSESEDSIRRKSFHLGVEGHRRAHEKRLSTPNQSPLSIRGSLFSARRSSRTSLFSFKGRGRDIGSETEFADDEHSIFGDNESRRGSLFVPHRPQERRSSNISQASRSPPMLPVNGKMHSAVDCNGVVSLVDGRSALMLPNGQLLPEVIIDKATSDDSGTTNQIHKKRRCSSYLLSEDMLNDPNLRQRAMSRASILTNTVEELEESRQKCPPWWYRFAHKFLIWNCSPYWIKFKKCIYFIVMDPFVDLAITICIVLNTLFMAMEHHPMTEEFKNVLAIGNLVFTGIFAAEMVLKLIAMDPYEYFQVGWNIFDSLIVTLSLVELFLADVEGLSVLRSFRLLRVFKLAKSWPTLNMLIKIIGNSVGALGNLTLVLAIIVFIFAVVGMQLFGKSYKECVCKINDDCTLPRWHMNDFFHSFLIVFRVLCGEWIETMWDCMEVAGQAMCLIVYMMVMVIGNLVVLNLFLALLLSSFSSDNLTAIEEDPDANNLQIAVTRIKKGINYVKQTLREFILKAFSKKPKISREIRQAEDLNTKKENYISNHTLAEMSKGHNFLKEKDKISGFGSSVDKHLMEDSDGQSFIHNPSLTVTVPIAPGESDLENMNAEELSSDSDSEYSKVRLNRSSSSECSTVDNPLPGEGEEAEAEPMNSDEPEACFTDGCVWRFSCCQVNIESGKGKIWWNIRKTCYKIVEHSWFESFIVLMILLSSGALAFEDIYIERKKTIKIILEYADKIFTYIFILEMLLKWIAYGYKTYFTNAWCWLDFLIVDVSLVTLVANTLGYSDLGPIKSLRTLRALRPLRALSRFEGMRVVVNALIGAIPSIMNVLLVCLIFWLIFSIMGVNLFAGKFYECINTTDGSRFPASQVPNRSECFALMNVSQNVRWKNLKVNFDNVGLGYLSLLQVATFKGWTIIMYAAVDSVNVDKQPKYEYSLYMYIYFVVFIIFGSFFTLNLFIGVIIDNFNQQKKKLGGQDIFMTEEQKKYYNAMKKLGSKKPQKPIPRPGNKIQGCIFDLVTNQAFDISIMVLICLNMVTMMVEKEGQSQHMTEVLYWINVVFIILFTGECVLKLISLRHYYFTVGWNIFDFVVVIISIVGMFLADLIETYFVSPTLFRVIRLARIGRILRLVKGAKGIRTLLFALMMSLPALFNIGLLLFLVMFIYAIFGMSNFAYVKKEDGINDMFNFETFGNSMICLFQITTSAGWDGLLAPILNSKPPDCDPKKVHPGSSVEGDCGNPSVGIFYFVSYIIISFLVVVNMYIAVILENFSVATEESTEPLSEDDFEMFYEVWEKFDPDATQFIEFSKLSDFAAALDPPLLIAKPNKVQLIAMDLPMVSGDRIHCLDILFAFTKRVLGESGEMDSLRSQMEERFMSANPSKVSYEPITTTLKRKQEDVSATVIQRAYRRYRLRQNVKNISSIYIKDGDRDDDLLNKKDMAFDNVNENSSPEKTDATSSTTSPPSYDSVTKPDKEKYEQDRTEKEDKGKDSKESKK

`N[C@@H]1CCC[C@H]1NCCCCNc1cc(F)c(S(=O)(=O)Nc2ncns2)cc1Br` [Ex 16-94, 4-[4-[[(1R,2R)-2-aminocyclopentyl]amino]butylamino]-5-bromo-2-fluoro-N-(1,2,4-thiadiazol-5-yl)benzenesulfonamide]: the IC50 (commonly the point on the concentration scale where inhibition reaches its midpoint) at human Nav1.7 amounted to 0.0073 µM. The “ratio of Nav 1.7 potency:Nav 1.5 potency” value at human Nav1.5 is on record as 3150.
For `N[C@@H]1CCC[C@@H]1NCCCCNc1cc(F)c(S(=O)(=O)Nc2ncns2)cc1Br` [Ex 16-93, 4-[4-[[(1S,2R)-2-aminocyclopentyl]amino]butylamino]-5-bromo-2-fluoro-N-(1,2,4-thiadiazol-5-yl)benzenesulfonamide], in that order: 0.041 µM and over 800.
For `CC(C)C[C@@H](CNCCCCNc1cc(F)c(S(=O)(=O)Nc2ncns2)cc1Cl)[C@@H](C)N` [Ex 16-85, 4-((4-(((S)-2-((R)-1-aminoethyl)-4-methylpentyl)-amino)butyl)amino)-5-chloro-2-fluoro-N-(1,2,4-thiadiazol-5-yl) benzenesulfonamide], in that order: 0.0045 µM and over 7330.
The matching figures for `C[C@H](CCN)NCCCCNc1cc(F)c(S(=O)(=O)Nc2ncns2)cc1Br` [Ex 16-79, 4-[4-[[(1R)-3-amino-1-methyl-propyl]amino]butylamino]-5-bromo-2-fluoro-N-(1,2,4-thiadiazol-5-yl)benzenesulfonamide]: 0.0054 µM and 4260.
Consider `CC(C)C[C@@H](CNCCCCNc1cc(F)c(S(=O)(=O)Nc2ncc(F)s2)cc1Cl)[C@@H](C)N` [Ex 16-84, 4-((4-(((S)-2-((R)-1-aminoethyl)-4-methylpentyl)-amino)butyl)amino)-5-chloro-2-fluoro-N-(5-fluorothiazol-2-yl)benzenesulfonamide], for which, on human Nav1.7, the IC50 came out at 0.0061 µM. In addition, the “ratio of Nav 1.7 potency:Nav 1.5 potency” value on human Nav1.5 is over 5400.
With `O=S(=O)(Nc1ncns1)c1cc(Cl)c(NCCCCNCC[C@@H]2CCCN2)cc1F` [Ex 16-21, 5-chloro-2-fluoro-4-{[4-({2-[(2S)-pyrrolidin-2-yl]ethyl}-amino)butyl]amino}-N-1,2,4-thiadiazol-5-ylbenzene-sulfonamide], the IC50 on human Nav1.7 worked out at 0.031 µM. In addition, the “ratio of Nav 1.7 potency:Nav 1.5 potency” value at human Nav1.5 is over 1046.
The matching figures for `C[C@H](CN)NCCCCNc1cc(F)c(S(=O)(=O)Nc2ncc(F)s2)cc1Cl` [Ex 16-59, 4-[(4-{[(1R)-2-amino-1-methylethyl]amino}butyl)-amino]-5-chloro-2-fluoro-N-(5-fluoro-1,3-thiazol-2-yl)-benzenesulfonamide]: 0.017 µM and over 1941.
With `C[C@@H](CN)NCCCCNc1cc(F)c(S(=O)(=O)Nc2nccs2)cc1Cl` [Ex 16-68, 4-[(4-{[(1S)-2-amino-1-methylethyl]amino}butyl)amino]-5-chloro-2-fluoro-N-1,3-thiazol-2-ylbenzenesulfonamide], at human Nav1.7, the IC50 was found to be 0.02 µM. The “ratio of Nav 1.7 potency:Nav 1.5 potency” value on human Nav1.5 is over 1650.
As to `N[C@H]1CC[C@H](NCCCCNc2cc(F)c(S(=O)(=O)Nc3ncns3)cc2Br)C1` [Ex 16-95, 4-[4-[[(1S,3S)-3-aminocyclopentyl]amino]butylamino]-5-bromo-2-fluoro-N-(1,2,4-thiadiazol-5-yl)benzenesulfonamide], the IC50 on human Nav1.7 stood at 0.035 µM. Moreover, on human Nav1.5, the “ratio of Nav 1.7 potency:Nav 1.5 potency” value is over 940.
For `O=S(=O)(Nc1ncns1)c1cc(Cl)c(NCCCCNCC[C@H]2CCCN2)cc1F` [Ex 16-20, 5-chloro-2-fluoro-4-{[4-({2-[(2R)-pyrrolidin-2-yl]ethyl}-amino)butyl]amino}-N-1,2,4-thiadiazol-5-ylbenzene-sulfonamide], in that order: 0.08 µM and over 412.
For `NC1CCC1NCCCCNc1cc(F)c(S(=O)(=O)Nc2ncns2)cc1Cl` (stereo not drawn) [Ex 16-81, 4-[4-[(2-aminocyclobutyl)amino]butylamino]-5-chloro-2-fluoro-N-(1,2,4-thiadiazol-5-yl) benzenesulfonamide], in that order: 0.0049 µM and over 6700.
Consider `N[C@@H]1CCC[C@H]1NCCCCNc1cc(F)c(S(=O)(=O)Nc2nccs2)cc1Cl` [Ex 16-09], for which, at human Nav1.7, the IC50 was 0.0092 µM. At human Nav1.5, the “ratio of Nav 1.7 potency:Nav 1.5 potency” value was over 3590.
The matching figures for `N[C@H]1CCCC[C@@H]1NCCCCNc1cc(F)c(S(=O)(=O)Nc2nccs2)cc1Cl` [Ex 1-07, 4-[(4-{[(1S,2S)-2-amino-cyclohexyl]amino}butyl)-amino]-5-chloro-2-fluoro-N-1,3-thiazol-2-yl-benzenesulfonamide]: 0.018 µM and over 1800.
For `N[C@@H]1CCCC[C@H]1NCCCCNc1cc(F)c(S(=O)(=O)Nc2nccs2)cc1Cl` [Ex 1-28, 4-[(4-{[(1R,2R)-2-aminocyclohexyl]amino}butyl)amino]-5-chloro-2-fluoro-N-1,3-thiazol-2-ylbenzenesulfonamide], in that order: 0.0084 µM and over 3930.
For `N[C@H]1CCC[C@H]1NCCCCNc1cc(F)c(S(=O)(=O)Nc2ncc(F)s2)cc1Cl` [Ex 16-64, 4-[(4-{[(1R,2S)-2-aminocyclopentyl]amino}butyl)amino]-5-chloro-2-fluoro-N-(5-fluoro-1,3-thiazol-2-yl) benzenesulfonamide], in that order: 0.023 µM and over 1430.
As for `O=S(=O)(Nc1ncns1)c1cc(Br)c(NCCCCNC[C@H]2CCN2)cc1F` [Ex 16-77, 4-[(4-{[(2R)-azetidin-2-ylmethyl]amino}butyl)amino]-5-bromo-2-fluoro-N-1,2,4-thiadiazol-5-ylbenzenesulfonamide], at human Nav1.7, the IC50 is 0.024 µM. Besides, the “ratio of Nav 1.7 potency:Nav 1.5 potency” value on human Nav1.5 is over 1380.
For `CC(C)(CCN)NCCCCNc1cc(F)c(S(=O)(=O)Nc2ncc(F)s2)cc1Cl` [Ex 16-27, 4-({4-[(3-amino-1,1-dimethylpropyl)amino]butyl}amino)-5-chloro-2-fluoro-N-(5-fluoro-1,3-thiazol-2-yl)-benzenesulfonamide], in that order: 0.019 µM and over 1737.
The matching figures for `O=S(=O)(Nc1ncc(F)s1)c1cc(Cl)c(NCCCCNC[C@H]2CCCN2)cc1F` [Ex 16-13, 5-chloro-2-fluoro-N-(5-fluoro-1,3-thiazol-2-yl)-4-[(4-{[(2R)-pyrrolidin-2-yl-methyl]amino}-butyl)-amino] benzenesulfonamide]: 0.012 µM and 2538.
As for `C[C@H](NCCCCNc1cc(F)c(S(=O)(=O)Nc2nccs2)cc1Cl)[C@@H]1CCCN1` [Ex 1-27, 5-chloro-2-fluoro-4-{[4-({(1S)-1-[(2S)-pyrrolidin-2-yl]ethyl}amino)butyl]-amino}-N-1,3-thiazol-2-yl-benzenesulfonamide], the IC50 at human Nav1.7 was determined as 0.031 µM. The “ratio of Nav 1.7 potency:Nav 1.5 potency” value on human Nav1.5 is reported as over 1070.
The matching figures for `CNCCCNCCCCNc1cc(F)c(S(=O)(=O)Nc2ncc(F)s2)cc1Cl` [Ex 16-28, 5-chloro-2-fluoro-N-(5-fluoro-1,3-thiazol-2-yl)-4-[(4-{[3-(methylamino)-propyl]amino}butyl)amino]-benzenesulfonamide]: 0.025 µM and over 1320.
The matching figures for `N[C@@H]1CCC[C@@H]1NCCCCNc1cc(F)c(S(=O)(=O)Nc2nccs2)cc1Cl` [Ex 1-29, 4-[(4-{[(1S,2R)-2-aminocyclopentyl]amino}butyl)amino]-5-chloro-2-fluoro-N-1,3-thiazol-2-ylbenzenesulfonamide]: 0.052 µM and over 635.
For `CNCCNCCCCNc1cc(F)c(S(=O)(=O)Nc2ncns2)cc1Cl` [Ex 16-48, 5-chloro-2-fluoro-4-[(4-{[2-(methylamino)ethyl]amino}-butyl)amino]-N-1,2,4-thiadiazol-5-ylbenzene-sulfonamide], the IC50 at human Nav1.7 amounted to 0.0088 µM. Moreover, on human Nav1.5, the “ratio of Nav 1.7 potency:Nav 1.5 potency” value is listed as over 3750.
For `C[C@H](N)CNCCCCNc1cc(F)c(S(=O)(=O)Nc2nccs2)cc1Cl` [Ex 16-12, 4-[(4-{[(2S)-2-aminopropyl]-amino}butyl)amino]-5-chloro-2-fluoro-N-1,3-thiazol-2-yl-benzene-sulfonamide], in that order: 0.013 µM and over 2540.
Regarding `O=S(=O)(Nc1nccs1)c1cc(Cl)c(NCCCCNC[C@H]2CCN2)cc1F` [Ex 16-75, 4-[(4-{[(2R)-azetidin-2-ylmethyl]amino}butyl)amino]-5-chloro-2-fluoro-N-1,3-thiazol-2-ylbenzenesulfonamide], the IC50 at human Nav1.7 was found to be 0.041 µM. For the same molecule, the “ratio of Nav 1.7 potency:Nav 1.5 potency” value on human Nav1.5 is over 805.
